Holding throughout (format): cell-based
The target of one test is T1, human TLR9 (Homo sapiens, UniProt Q9NR96).
T1 sequence (Q9NR96 26-1032): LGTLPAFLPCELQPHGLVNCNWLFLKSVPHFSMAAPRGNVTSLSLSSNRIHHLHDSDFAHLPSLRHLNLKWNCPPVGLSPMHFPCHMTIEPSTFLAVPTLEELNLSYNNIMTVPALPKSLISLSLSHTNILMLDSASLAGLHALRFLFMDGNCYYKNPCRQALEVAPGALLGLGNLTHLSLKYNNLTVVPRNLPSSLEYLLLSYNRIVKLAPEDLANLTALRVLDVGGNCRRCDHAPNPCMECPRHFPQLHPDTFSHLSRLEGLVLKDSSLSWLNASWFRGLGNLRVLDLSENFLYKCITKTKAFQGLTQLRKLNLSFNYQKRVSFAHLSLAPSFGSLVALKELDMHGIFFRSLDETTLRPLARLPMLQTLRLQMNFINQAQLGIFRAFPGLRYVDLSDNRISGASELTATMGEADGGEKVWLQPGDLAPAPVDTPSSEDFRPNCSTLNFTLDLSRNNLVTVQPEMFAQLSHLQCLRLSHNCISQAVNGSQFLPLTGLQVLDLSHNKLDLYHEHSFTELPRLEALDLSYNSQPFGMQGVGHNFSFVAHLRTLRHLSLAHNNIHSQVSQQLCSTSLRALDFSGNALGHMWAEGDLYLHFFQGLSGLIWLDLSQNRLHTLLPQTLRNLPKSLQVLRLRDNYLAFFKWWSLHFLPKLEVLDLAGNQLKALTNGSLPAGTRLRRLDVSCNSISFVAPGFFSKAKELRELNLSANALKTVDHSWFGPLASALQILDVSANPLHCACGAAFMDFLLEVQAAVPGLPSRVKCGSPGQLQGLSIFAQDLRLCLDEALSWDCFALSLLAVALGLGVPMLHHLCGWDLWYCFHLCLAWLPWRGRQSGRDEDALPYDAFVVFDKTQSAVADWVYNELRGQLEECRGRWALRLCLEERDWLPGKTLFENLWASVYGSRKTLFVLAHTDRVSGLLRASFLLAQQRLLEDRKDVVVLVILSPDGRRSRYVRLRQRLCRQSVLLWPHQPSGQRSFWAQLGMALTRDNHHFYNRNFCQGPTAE
Briefly: TLR9 inhibition reporter assay (HEK-Blue cells, SEAP reporter). To be noted: HEK-Blue cells overexpressing human TLR9; stimulated with ODN2006 5 nM; 22 hour incubation; SEAP readout. The gist of the method:
(§1)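 HEK-Blue cells with NF-κB/AP-1-driven SEAP pre-treated 30 min with compound (0.05 nM–50 μM), then stimulated with gardiquimod 7.5 μM (TLR7), R848 15.9 μM (TLR8) or ODN2006 5 nM (TLR9). SEAP detected after 22 h at 37 °C; percent inhibition relative to agonist-plus-DMSO and known-inhibitor wells.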

Another test addresses T2, human TLR7 (Homo sapiens, UniProt Q9NYK1).
T2 sequence (Q9NYK1 27-1049): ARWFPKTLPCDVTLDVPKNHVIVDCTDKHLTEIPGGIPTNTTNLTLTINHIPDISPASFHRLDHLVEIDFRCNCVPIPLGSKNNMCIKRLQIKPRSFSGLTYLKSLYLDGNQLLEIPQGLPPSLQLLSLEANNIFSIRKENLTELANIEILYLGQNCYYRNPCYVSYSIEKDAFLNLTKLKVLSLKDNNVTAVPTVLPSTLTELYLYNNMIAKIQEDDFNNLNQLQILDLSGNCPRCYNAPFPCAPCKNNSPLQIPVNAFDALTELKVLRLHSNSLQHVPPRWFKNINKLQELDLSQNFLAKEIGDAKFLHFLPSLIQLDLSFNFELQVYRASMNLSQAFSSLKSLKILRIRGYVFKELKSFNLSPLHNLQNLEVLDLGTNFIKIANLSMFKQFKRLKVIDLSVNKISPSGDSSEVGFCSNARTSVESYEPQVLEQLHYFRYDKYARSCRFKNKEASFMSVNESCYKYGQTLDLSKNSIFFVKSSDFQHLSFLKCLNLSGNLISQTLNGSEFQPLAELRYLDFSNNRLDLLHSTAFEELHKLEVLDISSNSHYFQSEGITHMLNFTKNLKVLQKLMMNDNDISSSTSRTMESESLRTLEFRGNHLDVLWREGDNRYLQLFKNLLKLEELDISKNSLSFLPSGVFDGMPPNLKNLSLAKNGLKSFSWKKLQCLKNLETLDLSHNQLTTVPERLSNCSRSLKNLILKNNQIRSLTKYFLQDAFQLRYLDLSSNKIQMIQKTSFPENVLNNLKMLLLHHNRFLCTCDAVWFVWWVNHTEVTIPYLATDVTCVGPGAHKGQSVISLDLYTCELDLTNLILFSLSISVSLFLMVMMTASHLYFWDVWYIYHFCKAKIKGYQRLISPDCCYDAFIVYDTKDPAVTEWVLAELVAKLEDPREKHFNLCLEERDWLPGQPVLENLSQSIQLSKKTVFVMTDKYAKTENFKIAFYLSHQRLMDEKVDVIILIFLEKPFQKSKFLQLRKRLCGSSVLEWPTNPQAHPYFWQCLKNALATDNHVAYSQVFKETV
Nature of the test: TLR7 inhibition reporter assay (HEK-Blue cells, SEAP reporter). To be noted: HEK-Blue cells overexpressing human TLR7; stimulated with gardiquimod 7.5 μM; 22 hour incubation; SEAP readout. The gist of the method:
as §1
(In general: A reporter such as luciferase makes a cellular process visible.)

A further test concerns the target T3, human TLR8 (Homo sapiens, UniProt Q9NR97).
T3 sequence (Q9NR97 27-1041): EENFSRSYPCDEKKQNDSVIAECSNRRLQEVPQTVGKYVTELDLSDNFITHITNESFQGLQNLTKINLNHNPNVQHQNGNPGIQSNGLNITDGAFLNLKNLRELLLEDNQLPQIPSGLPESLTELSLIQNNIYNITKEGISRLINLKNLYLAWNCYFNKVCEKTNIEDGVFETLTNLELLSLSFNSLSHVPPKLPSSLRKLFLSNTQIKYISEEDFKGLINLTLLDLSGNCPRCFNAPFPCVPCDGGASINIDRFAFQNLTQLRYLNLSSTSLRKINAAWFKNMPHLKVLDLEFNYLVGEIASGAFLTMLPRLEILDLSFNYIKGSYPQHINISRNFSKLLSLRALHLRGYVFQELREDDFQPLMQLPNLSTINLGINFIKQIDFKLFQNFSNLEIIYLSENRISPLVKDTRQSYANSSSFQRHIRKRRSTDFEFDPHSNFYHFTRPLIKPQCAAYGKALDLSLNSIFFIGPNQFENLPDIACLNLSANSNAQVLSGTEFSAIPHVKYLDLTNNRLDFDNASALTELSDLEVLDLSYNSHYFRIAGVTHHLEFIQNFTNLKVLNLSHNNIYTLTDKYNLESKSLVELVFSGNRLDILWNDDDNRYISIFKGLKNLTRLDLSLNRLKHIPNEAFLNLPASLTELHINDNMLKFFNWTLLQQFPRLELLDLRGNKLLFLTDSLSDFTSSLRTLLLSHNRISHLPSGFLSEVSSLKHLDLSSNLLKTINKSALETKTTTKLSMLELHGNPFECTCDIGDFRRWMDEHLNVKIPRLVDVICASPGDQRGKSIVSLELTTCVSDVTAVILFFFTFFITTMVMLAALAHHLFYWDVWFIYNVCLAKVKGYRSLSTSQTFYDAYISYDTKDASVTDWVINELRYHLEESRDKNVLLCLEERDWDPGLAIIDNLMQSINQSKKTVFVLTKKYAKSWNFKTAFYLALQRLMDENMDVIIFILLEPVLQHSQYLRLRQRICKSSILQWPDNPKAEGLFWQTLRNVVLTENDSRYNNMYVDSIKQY
Nature of the test: TLR8 inhibition reporter assay (HEK-Blue cells, SEAP reporter). To be noted: HEK-Blue cells overexpressing human TLR8; stimulated with R848 15.9 μM; 22 hour incubation; SEAP readout. The gist of the method: as §1

The term IC50 denotes the concentration at which inhibition is half-maximal. Low values mean greater potency, high ones weaker potency. With `COc1ccc(-c2cn3c(n2)CCC(C2CCN(C4CCN(C(=O)C(C)C)CC4)CC2)C3)cc1OC` (single isomer, unassigned) [Example 41, 1-(4-(2-(3,4-dimethoxyphenyl)-5,6,7,8-tetrahydroimidazo[1,2-a]pyridin-6-yl)-[1,4′-bipiperidin]-1′-yl)-2-methylpropan-1-one], the half-maximal inhibitory concentration (IC50) was 0.161 µM against human TLR9, more than 50 µM against human TLR7 and more than 50 µM against human TLR8.

In the case of `COc1ccc(-c2cn3cc(-c4ccc(N5CCN(CC(C)C)CC5)cc4)cc(C)c3n2)cc1OC` [Example 94, 2-(3,4-dimethoxyphenyl)-6-(4-(4-isobutylpiperazin-1-yl)phenyl)-8-methylimidazo[1,2-a]pyridine], the IC50 at human TLR9 is 0.22 µM; against human TLR7, more than 50 µM; against human TLR8, more than 50 µM.

Consider `CC(C)N1CCC(N2CCC(c3ccn4cc(-c5ccc(S(C)(=O)=O)cc5)nc4c3F)CC2)CC1` [Example 132, 8-fluoro-7-(1′-isopropyl-[1,4′-bipiperidin]-4-yl)-2-(4-(methylsulfonyl)phenyl) imidazo[1,2-a]pyridine], for which the half-inhibitory concentration (IC50) was 0.3 µM against human TLR9, 4 µM against human TLR7 and more than 50 µM against human TLR8.

Regarding `CS(=O)(=O)c1ccc(-c2cn3cc(C4CCN(C5CCCN(C6CCOCC6)CC5)CC4)cc(F)c3n2)cc1` (single isomer, unassigned) [Example 129, 8-fluoro-2-(4-(methylsulfonyl)phenyl)-6-(1-(1-(tetrahydro-2H-pyran-4-yl)azepan-4-yl)piperidin-4-yl)imidazo[1,2-a]pyridine], the IC50 was 0.02 µM against human TLR9, more than 50 µM on human TLR7 and more than 50 µM at human TLR8.

With `COc1ccc(-c2cn3cc(C4CCN(C5CC6(C5)CN(CC(C)C)C6)CC4)cc(C)c3n2)cc1OC` [Example 15, 2-(3,4-dimethoxyphenyl)-6-(1-(2-isobutyl-2-azaspiro[3.3]heptan-6-yl)piperidin-4-yl)-8-methylimidazo[1,2-a]pyridine], the IC50 at human TLR9 is 0.047 µM; at human TLR7, 46 µM; against human TLR8, more than 50 µM.

In the case of `COc1ccc(-c2cn3cc(C4CCN(C5CC6(C5)CN(C5CC5)C6)CC4)cc(C)c3n2)cc1OC` [Example 17, 6-(1-(2-cyclopropyl-2-azaspiro[3.3]heptan-6-yl)piperidin-4-yl)-2-(3,4-dimethoxyphenyl)-8-methylimidazo[1,2-a]pyridine], the results for the IC50 against human TLR9, on human TLR7 and at human TLR8 were 0.022 µM, 2.3 µM and more than 50 µM, respectively.

Regarding `CS(=O)(=O)c1ccc(-c2cn3cc(C4CCN(C5CC6CCC(C5)N6C5COC5)CC4)cc(F)c3n2)cc1` (single isomer, unassigned) [Example 120, 8-fluoro-2-(4-(methylsulfonyl)phenyl)-6-(1-(8-(oxetan-3-yl)-8-azabicyclo[3.2.1]octan-3-yl)piperidin-4-yl)imidazo[1,2-a]pyridine], the 50% inhibitory concentration (IC50) was 0.709 µM at human TLR9, 16.7 µM on human TLR7 and more than 50 µM at human TLR8.

With `Cc1cc(-c2ccc(N3CCN(CC(C)C)CC3)cc2)cn2cc(-c3ccc(S(C)(=O)=O)cc3)nc12` [Example 99, 6-(4-(4-isobutylpiperazin-1-yl)phenyl)-8-methyl-2-(4-(methylsulfonyl)phenyl) imidazo[1,2-a]pyridine], the IC50 is 0.624 µM at human TLR9, more than 50 µM on human TLR7 and more than 50 µM against human TLR8.

`Cc1cc(C2CCN(C3CCN(CC(C)C)CC3)CC2)cn2nc(-c3ccc(S(C)(=O)=O)cc3)nc12` [Example 163, 6-(1′-isobutyl-[1,4′-bipiperidin]-4-yl)-8-methyl-2-(4-(methylsulfonyl)phenyl)-[1,2,4]triazolo[1,5-a]pyridine]: the IC50 was 0.034 µM against human TLR9, more than 50 µM against human TLR7 and more than 50 µM at human TLR8.

For the compound `COc1ccc(-c2cn3cc(-c4ccc(N5CCN(CC6CC6)CC5)cc4)cc(C)c3n2)cc1OC` [Example 95, 6-(4-(4-(cyclopropylmethyl)piperazin-1-yl)phenyl)-2-(3,4-dimethoxyphenyl)-8-methylimidazo[1,2-a]pyridine], the figures for the IC50 on human TLR9, at human TLR7 and against human TLR8 were 0.531 µM, 1 µM and more than 50 µM, respectively.

As to `COc1ccc(-c2cn3c(n2)CC[C@H](C2CCN(C4CC5CCC(C4)N5CC(C)C)CC2)C3)cc1OC` (single isomer, unassigned) [Example 76], the IC50 against human TLR9 was 0.052 µM; against human TLR7, 1.6 µM; against human TLR8, more than 25 µM.

Regarding `COc1ccc(-c2cn3cc(C4CCN(C5CCN(C6CC6)CC5)CC4)ccc3n2)cc1OC` [Example 10, 6-(1′-cyclopropyl-[1,4′-bipiperidin]-4-yl)-2-(3,4-dimethoxyphenyl)imidazo[1,2-a]pyridine], the IC50 at human TLR9 is 0.129 µM; against human TLR7, 5.2 µM; at human TLR8, more than 50 µM.

On to `COc1ccc(-c2cn3c(n2)CC[C@H](C2CCN(C4CC5CCC(C4)N5CC(C)C)CC2)C3)cc1OC` (single isomer, unassigned) [Example 75], for which the IC50 on human TLR9 was 0.034 µM; against human TLR7 it was 2.9 µM; against human TLR8, more than 25 µM.
